Patent US8586505B2 (SDS Biotech K. K., priority 2009, dated 2013)

Key:
Phytophthora infestans = assay: whole plant or invertebrate; type: in vivo; conditions: in Solanum lycopersicum, 96 h, read-out: Determination of control effect (preventive value)
[1] = system: Pseudoperonospora cubensis; assay: Test of examining control effect on Pseudoperonospora cubensis (potted cucumber plants); type: in vivo; conditions: 96 h, 10% wettable powder adjusted to 125 ppm, 15 ml/pot sprayed on potted cucumber plants one day before spray inoculation, assessed after 1 day wet chamber and 3 days greenhouse, read-out: Determination of control effect (preventive value) on Pseudoperonospora cubensis
How it was run: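 Cucumber plants (Sagamihanjiro, 2.5-leaf stage) sprayed with 125 ppm compound solution from 10% wettable powder, 15 ml/pot. One day later, spray-inoculated with P. cubensis conidia (1.0×10^4 cells/ml), kept 1 day at 21° C wet, then 3 days in greenhouse. Preventive value derived from lesion area relative to untreated plants.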

Sphaerotheca fuliginea = assay: Test of examining control effect on Sphaerotheca fuliginea (potted cucumber plants); type: in vivo; conditions: Podosphaera fuliginea, 336 h; 10% wettable powder adjusted to 125 ppm, 15 ml/pot sprayed on potted cucumber plants one day before spray inoculation; assessed after 14 days in greenhouse; read-out: Determination of control effect (preventive value) on Sphaerotheca fuliginea
How it was run: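 Cucumber plants (Sagamihanjiro, 2nd leaf stage) sprayed with 125 ppm compound (from 10% wettable powder), inoculated one day later with S. fuliginea conidia (1.0×10^5 cells/ml); lesion area scored after 14 days in greenhouse. Preventive value vs untreated; ≥60% high, <60% low control.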

Compound	pest or weed control at 125 ppm (Phytophthora infestans) [%]	pest or weed control at 125 µg/mL [1] [%]	pest or weed control at 125 µg/mL (Sphaerotheca fuliginea) [%]	melting point [°C]
CCOC(=O)c1ccc(C#CCCNc2ncnc3ccccc23)cc1 [compound 129]	0 to 60	60 to 100	0 to 60	137 to 138
OCc1cccc(C#CCCNc2ncnc3ccccc23)c1 [compound 131]	60 to 100	60 to 100	60 to 100	113 to 115
OCc1ccc(C#CCCNc2ncnc3ccccc23)cc1 [compound 132]	0 to 60	60 to 100	0 to 60	69 to 71
OC(c1ccccc1C#CCCNc1ncnc2ccccc12)C(F)(F)F (centres unmarked) [compound 138]	0 to 60	0 to 60	0 to 60	183 to 187
COCc1cc(F)c(F)cc1C#CCCNc1ncnc2ccccc12 [compound 146]	60 to 100	60 to 100	60 to 100	121 to 125
C(#Cc1ccc(OC2CCCCO2)cc1)CCNc1ncnc2ccccc12 (centres unmarked) [compound 156]	60 to 100	60 to 100	60 to 100	163 to 165
Fc1cc(Cl)ccc1C#CCCNc1ncnc2ccccc12 [compound 164]	60 to 100	60 to 100	60 to 100	198 to 199
N#Cc1c(F)cccc1C#CCCNc1ncnc2ccccc12 [compound 165]	0 to 60	60 to 100	60 to 100	163 to 164
Fc1ccc(C#CCCNc2ncnc3ccccc23)cc1F [compound 166]	60 to 100	60 to 100	60 to 100	161 to 162
Clc1cccc(C#CCCNc2ncnc3ccccc23)c1Cl [compound 171]	60 to 100	60 to 100	60 to 100	175 to 176
Clc1ccc(C#CCCNc2ncnc3ccccc23)c(Cl)c1 [compound 172]	60 to 100	60 to 100	60 to 100	182 to 183
Clc1ccc(Cl)c(C#CCCNc2ncnc3ccccc23)c1 [compound 173]	0 to 60	60 to 100	60 to 100	176 to 177
Clc1cccc(Cl)c1C#CCCNc1ncnc2ccccc12 [compound 174]	60 to 100	60 to 100	60 to 100	153 to 155
Clc1ccc(C#CCCNc2ncnc3ccccc23)cc1Cl [compound 175]	0 to 60	60 to 100	60 to 100	147 to 148
FC(F)(F)c1ccc(Cl)c(C#CCCNc2ncnc3ccccc23)c1 [compound 176]	0 to 60	60 to 100	60 to 100	144 to 145
COc1ccc(Cl)cc1C#CCCNc1ncnc2ccccc12 [compound 179]	60 to 100	60 to 100	60 to 100	147 to 149
C(#Cc1ccc2ccccc2c1)CCNc1ncnc2ccccc12 [compound 183]	60 to 100	60 to 100	60 to 100	159 to 160
Fc1cncc(C#CCCNc2ncnc3ccccc23)c1 [compound 193]	60 to 100	60 to 100	60 to 100	145 to 150
Clc1ncccc1C#CCCNc1ncnc2ccccc12 [compound 195]	60 to 100	60 to 100	60 to 100	168 to 170
FC(F)(F)c1ccc(C#CCCNc2ncnc3ccccc23)cn1 [compound 198]	0 to 60	60 to 100	60 to 100	134 to 139
OCc1cnccc1C#CCCNc1ncnc2ccccc12 [compound 201]	0 to 60	60 to 100	60 to 100	182 to 186

Compound	pest or weed control at 125 ppm (Phytophthora infestans) [%]	pest or weed control at 125 µg/mL [1] [%]	pest or weed control at 125 µg/mL (Sphaerotheca fuliginea) [%]	melting point [°C]
OCc1ccc(C#CCCNc2ncnc3ccccc23)cn1 [compound 202]	0 to 60	60 to 100	0 to 60	183 to 185
OCc1cc(C#CCCNc2ncnc3ccccc23)co1 [compound 209]	0 to 60	60 to 100	0 to 60	135 to 147
CCOC(=O)c1cnc(C#CCCNc2ncnc3ccccc23)s1 [compound 213]	0 to 60	60 to 100	60 to 100	113 to 114
CCOC(=O)c1sc(C#CCCNc2ncnc3ccccc23)nc1C [compound 214]	0 to 60	60 to 100	60 to 100	139 to 140
COc1cccc(Oc2nc(C#CCCNc3ncnc4ccccc34)cs2)c1 [compound 216]	60 to 100	60 to 100	60 to 100	77 to 79
COc1ccc(Oc2nc(C#CCCNc3ncnc4ccccc34)cs2)cc1 [compound 217]	0 to 60	60 to 100	60 to 100	150 to 152
FC(F)(F)c1ccccc1Oc1nc(C#CCCNc2ncnc3ccccc23)cs1 [compound 218]	0 to 60	60 to 100	0 to 60	159 to 161
FC(F)(F)c1cccc(Oc2nc(C#CCCNc3ncnc4ccccc34)cs2)c1 [compound 219]	0 to 60	60 to 100	60 to 100	106 to 108
FC(F)(F)c1ccc(Oc2nc(C#CCCNc3ncnc4ccccc34)cs2)cc1 [compound 220]	0 to 60	0 to 60	60 to 100	137 to 139
N#Cc1cccc(Oc2nc(C#CCCNc3ncnc4ccccc34)cs2)c1 [compound 222]	0 to 60	60 to 100	60 to 100	137 to 139
N#Cc1ccc(Oc2nc(C#CCCNc3ncnc4ccccc34)cs2)cc1 [compound 223]	60 to 100	60 to 100	60 to 100	55 to 57
Fc1cccc(Oc2nc(C#CCCNc3ncnc4ccccc34)cs2)c1 [compound 225]	60 to 100	60 to 100	60 to 100	134 to 136
CC(CC#Cc1cscn1)Nc1ncnc2ccccc12 (centres unmarked) [compound 291]	0 to 60	60 to 100	60 to 100	142 to 145
C(#Cc1ccccc1)CC(Nc1ncnc2ccccc12)c1ccccc1 (centres unmarked) [compound 301, 4-[(1,4-diphenyl-3-butynyl)amino]quinazoline]	0 to 60	0 to 60	0 to 60	141 to 143
FC(F)(F)c1ccccc1C#CCC(Nc1ncnc2ccccc12)c1ccccc1 (centres unmarked) [compound 302]	0 to 60	0 to 60	0 to 60	150 to 152
FC(F)(F)c1ccccc1C#CCCNc1ncnc2cc(Cl)ccc12 [compound 308]	0 to 60	60 to 100	60 to 100	153 to 154
COCc1ccccc1C#CCCNc1ncnc2ccc(I)cc12 [compound 322]	0 to 60	60 to 100	60 to 100	121 to 123
COCc1ccccc1C#CCCNc1ncnc2c(Cl)cc(Cl)cc12 [compound 338]	0 to 60	60 to 100	0 to 60	161 to 162
Clc1ncnc(NCCC#Cc2ccccc2)c1Cl [compound 357]	60 to 100	60 to 100	0 to 60	122 to 123
Clc1cc(NCCC#Cc2ccccc2)ncn1 [compound 358]	0 to 60	0 to 60	60 to 100	118 to 120
